# According to ChEMBL document CHEMBL1201862, “PubChem BioAssay data set” (2004):
# Active and inactive are the calls of the source.
# Columns and labels:
# [1] = target: Sphingosine 1-phosphate receptor 2 (Homo sapiens, UniProt O95136); assay: Dose Response Cell Based Assay for Agonists of the S1P2 Receptor. [Related pubchem assays: 729, 736, 843 ]; format: functional
# [2] = HIF luciferase reporter inhibitors, dose response, ARNT-TACC3 inhibitor project, cell-based, dry powder samples, luminescence, 2158-07 (AID 720561); format: functional
# [3] = inhibitors of HRE-driven luciferase expression, dose response, ARNT-TACC3 inhibitor project, HeLa cells, luminescence, dry powder samples, 2158-08 (AID 720560); format: functional, cell-based
# Ephrin type-A receptor 4 = Ephrin type-A receptor 4 (Mus musculus, UniProt Q03137); assay: inhibitors of EphA4 binding to KYL peptide, primary screen, biochemical, colorimetric, mouse EphA4 (AID 689); format: functional
# Ephrin type-A receptor 4, sequence (Q03137 whole entry): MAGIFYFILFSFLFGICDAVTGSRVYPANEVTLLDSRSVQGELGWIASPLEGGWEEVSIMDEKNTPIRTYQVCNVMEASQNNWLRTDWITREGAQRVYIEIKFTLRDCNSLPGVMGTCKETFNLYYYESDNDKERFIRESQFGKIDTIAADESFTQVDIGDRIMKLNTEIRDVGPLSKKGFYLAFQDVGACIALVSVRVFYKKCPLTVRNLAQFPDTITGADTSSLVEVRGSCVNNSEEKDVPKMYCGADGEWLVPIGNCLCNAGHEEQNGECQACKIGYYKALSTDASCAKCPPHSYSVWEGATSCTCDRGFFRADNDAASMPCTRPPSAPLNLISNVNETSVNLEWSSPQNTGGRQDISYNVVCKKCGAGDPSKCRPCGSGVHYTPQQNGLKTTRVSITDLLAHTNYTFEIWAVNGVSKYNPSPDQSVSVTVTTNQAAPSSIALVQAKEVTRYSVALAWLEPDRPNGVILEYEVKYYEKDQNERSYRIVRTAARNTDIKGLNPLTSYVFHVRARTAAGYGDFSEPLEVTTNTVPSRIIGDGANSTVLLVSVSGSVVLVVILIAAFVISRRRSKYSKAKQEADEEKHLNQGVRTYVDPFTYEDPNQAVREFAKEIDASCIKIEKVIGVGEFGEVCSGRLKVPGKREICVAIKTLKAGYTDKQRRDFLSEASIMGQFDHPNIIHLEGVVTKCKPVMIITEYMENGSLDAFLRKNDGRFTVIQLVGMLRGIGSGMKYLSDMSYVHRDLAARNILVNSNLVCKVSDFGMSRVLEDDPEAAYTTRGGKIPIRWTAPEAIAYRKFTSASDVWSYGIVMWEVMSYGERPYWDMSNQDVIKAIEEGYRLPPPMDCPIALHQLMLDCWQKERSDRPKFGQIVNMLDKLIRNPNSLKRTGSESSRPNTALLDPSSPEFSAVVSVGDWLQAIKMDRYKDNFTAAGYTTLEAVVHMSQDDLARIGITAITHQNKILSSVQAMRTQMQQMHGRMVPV
# [4] = target: T1, Tyrosine-protein phosphatase non-receptor type 11 (Homo sapiens, UniProt Q06124); assay: SHP2 phosphatase inhibition, dose response, selectivity assay for STEP inhibitor project, biochemical (AID 602367); format: functional; conditions: read-out: IC50_Mean
# T1 sequence (Q06124 whole entry): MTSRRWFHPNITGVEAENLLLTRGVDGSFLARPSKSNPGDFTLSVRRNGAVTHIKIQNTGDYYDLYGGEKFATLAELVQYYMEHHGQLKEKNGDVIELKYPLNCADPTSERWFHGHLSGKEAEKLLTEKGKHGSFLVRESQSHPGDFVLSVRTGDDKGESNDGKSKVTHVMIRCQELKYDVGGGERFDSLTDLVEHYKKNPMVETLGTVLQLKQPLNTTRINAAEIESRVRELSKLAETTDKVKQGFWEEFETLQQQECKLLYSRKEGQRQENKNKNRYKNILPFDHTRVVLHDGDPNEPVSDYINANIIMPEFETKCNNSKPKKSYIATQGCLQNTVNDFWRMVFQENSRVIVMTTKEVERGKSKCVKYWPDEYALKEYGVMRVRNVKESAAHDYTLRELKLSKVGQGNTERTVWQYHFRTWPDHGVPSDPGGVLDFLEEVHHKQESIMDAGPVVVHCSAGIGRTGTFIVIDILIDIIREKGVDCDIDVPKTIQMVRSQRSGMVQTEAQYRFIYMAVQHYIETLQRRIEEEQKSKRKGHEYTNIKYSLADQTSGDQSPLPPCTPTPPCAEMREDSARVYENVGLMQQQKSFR
# [5] = target: T2, Tyrosine-protein phosphatase non-receptor type 5 (Homo sapiens, UniProt P54829); assay: STEP phosphatase inhibitors, confirmation, biochemical, fluorescence intensity, uHTS hits (AID 602372); format: functional; conditions: read-out: IC50_Mean
# T2 sequence (P54829 whole entry): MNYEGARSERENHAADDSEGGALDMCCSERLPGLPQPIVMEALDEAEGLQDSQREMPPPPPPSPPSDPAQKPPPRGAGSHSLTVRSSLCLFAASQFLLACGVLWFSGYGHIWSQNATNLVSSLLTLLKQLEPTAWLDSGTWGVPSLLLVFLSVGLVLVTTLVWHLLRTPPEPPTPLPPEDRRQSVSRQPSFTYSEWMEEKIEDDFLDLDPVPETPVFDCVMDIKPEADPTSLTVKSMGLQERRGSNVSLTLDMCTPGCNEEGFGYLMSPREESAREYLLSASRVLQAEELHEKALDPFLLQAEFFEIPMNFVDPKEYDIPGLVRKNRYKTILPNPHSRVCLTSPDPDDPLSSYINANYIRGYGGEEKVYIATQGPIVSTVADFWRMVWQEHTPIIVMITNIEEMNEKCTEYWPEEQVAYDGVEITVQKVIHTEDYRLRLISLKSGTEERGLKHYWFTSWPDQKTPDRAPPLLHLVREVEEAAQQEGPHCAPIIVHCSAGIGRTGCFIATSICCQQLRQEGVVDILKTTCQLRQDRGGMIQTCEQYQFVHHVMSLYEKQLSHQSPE
# [6] = target: Dual specificity protein phosphatase 3 (Homo sapiens, UniProt P51452); assay: VHR phosphatase inhibition, dose response, selectivity assay for STEP inhibitor project, biochemical (AID 602374); format: functional; conditions: read-out: IC50_Mean
# Dual specificity protein phosphatase 3, sequence (P51452 whole entry): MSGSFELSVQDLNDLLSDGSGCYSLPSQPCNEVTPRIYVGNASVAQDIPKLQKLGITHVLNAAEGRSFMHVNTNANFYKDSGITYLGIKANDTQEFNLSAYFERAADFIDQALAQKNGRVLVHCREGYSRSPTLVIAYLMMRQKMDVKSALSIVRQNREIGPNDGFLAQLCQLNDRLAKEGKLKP
# [7] = target: Tyrosine-protein phosphatase non-receptor type 22 (Homo sapiens, UniProt Q9Y2R2); assay: PTPN22 phosphatase inhibition, dose response, selectivity assay for STEP inhibitor project, biochemical (AID 624241); format: functional
# Tyrosine-protein phosphatase non-receptor type 22, sequence (Q9Y2R2 whole entry): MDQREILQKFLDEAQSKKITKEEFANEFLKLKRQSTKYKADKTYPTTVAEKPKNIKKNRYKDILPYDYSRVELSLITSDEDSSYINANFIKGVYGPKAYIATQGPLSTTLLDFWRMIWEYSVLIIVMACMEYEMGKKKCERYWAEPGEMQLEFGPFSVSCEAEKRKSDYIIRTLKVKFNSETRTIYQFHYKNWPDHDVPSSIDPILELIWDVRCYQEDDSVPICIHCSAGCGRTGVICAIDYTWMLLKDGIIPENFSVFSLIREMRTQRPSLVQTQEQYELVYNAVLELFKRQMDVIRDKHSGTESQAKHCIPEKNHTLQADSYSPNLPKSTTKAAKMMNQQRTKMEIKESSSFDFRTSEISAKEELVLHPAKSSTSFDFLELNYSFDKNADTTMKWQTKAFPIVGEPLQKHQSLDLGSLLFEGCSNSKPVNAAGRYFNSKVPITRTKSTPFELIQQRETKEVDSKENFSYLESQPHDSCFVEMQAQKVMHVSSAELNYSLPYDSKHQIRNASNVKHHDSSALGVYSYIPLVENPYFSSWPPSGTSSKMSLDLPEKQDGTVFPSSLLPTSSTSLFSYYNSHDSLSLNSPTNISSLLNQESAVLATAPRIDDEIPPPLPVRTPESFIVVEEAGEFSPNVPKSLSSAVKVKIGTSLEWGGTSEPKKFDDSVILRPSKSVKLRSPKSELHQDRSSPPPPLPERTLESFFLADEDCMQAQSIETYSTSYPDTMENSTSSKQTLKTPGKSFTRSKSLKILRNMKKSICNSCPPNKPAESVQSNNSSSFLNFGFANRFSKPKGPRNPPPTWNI
# Phospholipase D2 = Phospholipase D2 (Homo sapiens, UniProt O14939); assay: PLD2 Cellular Concentration Response Study.; format: functional
# Phospholipase D1 = Phospholipase D1 (Homo sapiens, UniProt Q13393); assay: PLD1 Cellular Concentration Response Study.; format: functional
# Phospholipase D1, sequence (Q13393 whole entry): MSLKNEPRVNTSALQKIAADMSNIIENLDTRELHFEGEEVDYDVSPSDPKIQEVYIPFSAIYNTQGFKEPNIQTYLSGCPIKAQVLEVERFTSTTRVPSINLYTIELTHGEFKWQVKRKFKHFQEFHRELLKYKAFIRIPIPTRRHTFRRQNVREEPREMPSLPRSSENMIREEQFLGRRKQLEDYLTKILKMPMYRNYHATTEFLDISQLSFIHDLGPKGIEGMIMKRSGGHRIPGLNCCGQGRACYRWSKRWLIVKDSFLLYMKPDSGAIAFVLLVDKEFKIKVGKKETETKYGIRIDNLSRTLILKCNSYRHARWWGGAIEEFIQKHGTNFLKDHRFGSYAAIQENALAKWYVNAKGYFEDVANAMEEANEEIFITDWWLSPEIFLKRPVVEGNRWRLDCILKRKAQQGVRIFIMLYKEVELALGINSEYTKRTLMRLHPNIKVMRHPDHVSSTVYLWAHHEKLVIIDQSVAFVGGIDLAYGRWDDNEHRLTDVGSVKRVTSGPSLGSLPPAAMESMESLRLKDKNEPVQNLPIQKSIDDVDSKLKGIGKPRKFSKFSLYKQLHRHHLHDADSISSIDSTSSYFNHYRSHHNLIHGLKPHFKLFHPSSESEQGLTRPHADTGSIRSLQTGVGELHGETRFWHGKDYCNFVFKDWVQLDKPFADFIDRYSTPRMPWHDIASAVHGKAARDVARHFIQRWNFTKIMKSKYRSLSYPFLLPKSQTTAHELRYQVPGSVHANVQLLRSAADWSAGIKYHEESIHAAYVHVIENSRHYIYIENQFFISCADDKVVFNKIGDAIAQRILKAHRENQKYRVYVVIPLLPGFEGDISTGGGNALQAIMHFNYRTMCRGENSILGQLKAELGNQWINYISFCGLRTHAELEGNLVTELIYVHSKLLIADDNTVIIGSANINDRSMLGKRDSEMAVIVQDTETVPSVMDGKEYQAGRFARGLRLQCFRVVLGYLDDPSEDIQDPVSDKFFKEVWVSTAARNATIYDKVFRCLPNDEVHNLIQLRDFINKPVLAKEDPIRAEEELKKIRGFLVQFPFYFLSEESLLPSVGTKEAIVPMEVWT
# [8] = THP-1 cell cytotoxicity, dose response, cytotoxicity control for Vif-APOBEC3G degradation inhibitor project, THP-1 cells (AID 1117359); format: functional; conditions: Human immunodeficiency virus 1, THP-1
# Transthyretin = Transthyretin (Homo sapiens, UniProt P02766); assay: Luminescence-based cell-based high throughput dose response assay to identify activators of Transthyretin (TTR) transcription.; format: functional
# [9] = HEp-2 cell cytotoxicity, dose response, cytotoxicity control for RSV inhibitor project, HTS (AID 2410); format: functional; conditions: human respiratory syncytial virus
# [10] = M. tuberculosis growth inhibition, HTS (AID 449762); format: functional
# [11] = microbe, parasite or virus in culture; format: functional; conditions: Mycobacterium tuberculosis
# [12] = target: T3, Aryl hydrocarbon receptor (Homo sapiens, UniProt P35869); assay: Luminescence-based cell-based high throughput dose response assay for activators of the Aryl Hydrocarbon Receptor (AHR). [Related pubchem assays: 2796 (Primary screen (AHR activators in singlicate)), 2845 (Confirmation screen (AHR activators in triplicate)), 434939 (Counterscreen (PXR activators in triplicate)), 2804 (Summary (AHR activators))]; format: ADME
# T3 sequence (P35869 whole entry): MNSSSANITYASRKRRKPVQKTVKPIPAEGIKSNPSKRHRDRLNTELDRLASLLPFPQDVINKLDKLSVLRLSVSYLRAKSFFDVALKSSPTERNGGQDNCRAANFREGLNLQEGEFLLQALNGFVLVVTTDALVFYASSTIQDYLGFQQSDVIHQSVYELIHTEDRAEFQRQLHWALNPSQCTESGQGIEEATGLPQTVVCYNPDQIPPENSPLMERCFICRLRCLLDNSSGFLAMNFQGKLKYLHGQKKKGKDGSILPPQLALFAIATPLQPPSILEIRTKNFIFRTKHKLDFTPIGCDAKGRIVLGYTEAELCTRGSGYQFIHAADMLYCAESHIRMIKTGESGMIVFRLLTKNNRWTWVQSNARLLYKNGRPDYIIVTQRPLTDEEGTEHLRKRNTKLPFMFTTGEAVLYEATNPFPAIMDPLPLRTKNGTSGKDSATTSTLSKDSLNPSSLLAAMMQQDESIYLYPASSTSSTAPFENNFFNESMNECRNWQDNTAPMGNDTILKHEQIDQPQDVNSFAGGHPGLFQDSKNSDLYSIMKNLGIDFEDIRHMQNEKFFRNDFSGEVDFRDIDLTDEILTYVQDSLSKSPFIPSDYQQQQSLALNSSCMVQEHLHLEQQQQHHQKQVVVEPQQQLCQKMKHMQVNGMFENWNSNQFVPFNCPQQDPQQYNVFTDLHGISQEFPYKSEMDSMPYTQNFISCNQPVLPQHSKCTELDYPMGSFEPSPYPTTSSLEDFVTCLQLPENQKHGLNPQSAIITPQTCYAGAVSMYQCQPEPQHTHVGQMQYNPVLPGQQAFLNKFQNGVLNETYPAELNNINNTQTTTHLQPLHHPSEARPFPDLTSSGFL
# Fibrinogen beta chain [13] = target: T4, Fibrinogen beta chain (Homo sapiens, UniProt P02675); assay: Fluorescence polarization-based biochemical high throughput dose response assay to identify inhibitors that disrupt the binding of a cyclic peptide (Tn6) to the fibrin proteolytic product D-Dimer and fragment E complex [DD(E )].
# T4 sequence (P02675 whole entry, the tested form may be a part): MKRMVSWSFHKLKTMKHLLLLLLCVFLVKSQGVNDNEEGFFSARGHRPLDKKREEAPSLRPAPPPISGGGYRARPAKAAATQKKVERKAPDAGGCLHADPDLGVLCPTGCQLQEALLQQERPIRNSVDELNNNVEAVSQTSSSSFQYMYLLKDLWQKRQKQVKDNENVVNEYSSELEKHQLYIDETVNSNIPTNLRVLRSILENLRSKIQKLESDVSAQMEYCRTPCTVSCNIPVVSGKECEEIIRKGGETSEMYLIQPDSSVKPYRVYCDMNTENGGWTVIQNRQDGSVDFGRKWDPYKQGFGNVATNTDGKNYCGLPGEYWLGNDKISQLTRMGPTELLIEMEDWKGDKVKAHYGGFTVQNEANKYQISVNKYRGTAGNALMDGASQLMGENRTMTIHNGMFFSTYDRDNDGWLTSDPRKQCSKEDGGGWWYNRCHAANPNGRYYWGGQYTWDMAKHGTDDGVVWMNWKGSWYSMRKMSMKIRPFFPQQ
# Fibrinogen beta chain [14] = target: T4, Fibrinogen beta chain; assay: Fluorescence polarization-based biochemical high throughput dose response assay to identify inhibitors that disrupt the binding of a cyclic peptide (Tn7) to the fibrin proteolytic product D-Dimer and fragment E complex [DD(E )].
# Paired box protein Pax-8 = Paired box protein Pax-8 (Homo sapiens, UniProt Q06710); assay: inhibitors of PAX8-driven TPO luciferase reporter, dose response, RMG-I cells, cherry-pick (AID 687027); format: functional, cell-based;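 note: luciferase reporter driven by Pax8 target thyroperoxidase promoter measured by SteadyGlo luminescence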
# Paired box protein Pax-8, sequence (Q06710 whole entry): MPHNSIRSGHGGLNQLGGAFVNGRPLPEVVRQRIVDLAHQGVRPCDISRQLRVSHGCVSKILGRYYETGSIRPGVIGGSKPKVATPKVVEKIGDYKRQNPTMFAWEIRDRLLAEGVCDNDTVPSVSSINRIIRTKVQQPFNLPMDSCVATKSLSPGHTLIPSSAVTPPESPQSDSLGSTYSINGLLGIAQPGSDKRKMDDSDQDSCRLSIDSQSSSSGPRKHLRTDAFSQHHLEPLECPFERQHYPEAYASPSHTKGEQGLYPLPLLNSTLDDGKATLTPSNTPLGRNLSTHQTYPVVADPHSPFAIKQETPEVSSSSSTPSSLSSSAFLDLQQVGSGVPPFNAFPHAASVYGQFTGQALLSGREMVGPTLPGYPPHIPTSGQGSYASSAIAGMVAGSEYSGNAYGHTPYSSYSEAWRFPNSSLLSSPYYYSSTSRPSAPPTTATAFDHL
# [15] = PAX2 cell-based inhibition, dose response, selectivity assay for PAX8 inhibitor project, plate reader, dry powder samples (AID 743048); format: functional;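 note: HEK293 cells carrying a WT1 promoter luciferase reporter driven by expressed Pax2; potency is for inhibition of Pax2 driven reporter signal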
# [16] = cytotoxicity in COV362 ovarian cancer cells, dose response, cytotoxicity control for PAX8 inhibitor project, cell-based, plate reader, dry powder, SA12 (AID 743144); format: functional
# [17] = NIH:OVCAR-3 ovarian cancer cell cytotoxicity, dose response, PAX8 inhibitor project, plate reader, dry powder samples (AID 743044); format: functional, cell-based
# [18] = PAX5 activity inhibitors, dose response, selectivity assay for PAX8 inhibitor project, cell-based, plate reader, dry powder samples (AID 743047); format: functional;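 note: HEK293 cells carrying a Pax5 driven CD19 promoter luciferase reporter; potency of inhibitors that lower reporter luminescence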
# [19] = cytotoxicity in OVCAR4 cells, dose response, cytotoxicity control for PAX8 inhibitor project, cell-based, plate reader, dry powder, SA11 (AID 743150); format: functional; conditions: OVCAR-4
# [20] = cytotoxicity in COV434 cells, dose response, cytotoxicity control for PAX8 inhibitor project, cell-based, plate reader, dry powder, SA7 (AID 743145); format: functional
# [21] = cytotoxicity in OV-90 ovarian cancer cells, dose response, PAX8 inhibitor project, cell-based, plate reader, dry powder, SA8 (AID 743149); format: functional
# [22] = cytotoxicity dependent on PAX8, dose response, cell-based, plate reader, dry powder (AID 743049); format: functional
# [23] = target: T5, Microphthalmia-associated transcription factor (Homo sapiens, UniProt O75030); assay: TRPM1 promoter luciferase signal decrease, dose response, MITF inhibitor project, cell-based, SK-MEL-5, cherry-picked, set 3 (AID 493073); format: functional
# T5 sequence (O75030 whole entry): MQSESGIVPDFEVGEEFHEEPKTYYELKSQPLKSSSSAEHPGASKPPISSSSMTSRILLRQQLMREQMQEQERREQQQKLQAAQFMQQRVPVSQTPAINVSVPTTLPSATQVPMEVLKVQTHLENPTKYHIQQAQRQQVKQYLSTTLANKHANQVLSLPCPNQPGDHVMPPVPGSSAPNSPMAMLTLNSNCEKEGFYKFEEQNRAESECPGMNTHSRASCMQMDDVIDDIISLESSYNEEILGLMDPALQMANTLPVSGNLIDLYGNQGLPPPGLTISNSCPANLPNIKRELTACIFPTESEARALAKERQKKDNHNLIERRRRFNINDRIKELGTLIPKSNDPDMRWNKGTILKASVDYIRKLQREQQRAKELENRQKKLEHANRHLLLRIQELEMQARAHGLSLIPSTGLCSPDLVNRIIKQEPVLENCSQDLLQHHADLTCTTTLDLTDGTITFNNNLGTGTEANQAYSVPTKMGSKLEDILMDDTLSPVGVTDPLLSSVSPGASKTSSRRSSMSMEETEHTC
# A-375 = assay: MITF: Counter assay: A375 proliferation Measured in Cell-Based System Using Plate Reader - 2084-03_Inhibitor_Dose_DryPowder_Activity. [Related pubchem assays (depositor defined):AID488944]; format: functional; conditions: Homo sapiens
# [24] = Shn3 3'UTR reporter inhibitors, dose response, cell-based, Clone20 osteoblasts, firefly luciferase, cherry-picked (AID 624132); format: functional;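 note: firefly luciferase luminescence from reporter carrying the Shn3 3'UTR in osteoblasts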
# [25] = HepG2 cell cytotoxicity, dose response, cytotoxicity control for Shn3 inhibitor project, CellTiter-Glo, cherry-picked (AID 624134); format: functional, cell-based
# [26] = control 3'UTR Renilla luciferase suppression, dose response, counter-screen for Shn3 inhibitor project, cell-based, Clone20-Shn3RL, cherry-picked (AID 624133); format: functional
# [27] = Vero cell cytotoxicity, dose response, cytotoxicity control for Vif-APOBEC3G degradation inhibitor project, Vero cells (AID 1117358); format: functional; conditions: Human immunodeficiency virus 1, Vero
# [28] = Plasmodium falciparum Dd2 Sybr green parasite growth Measured in Cell-Based and Microorganism Combination System Using Plate Reader - 2153-01_Inhibitor_Dose_DryPowder_Activity_Set3.; format: functional
# [29] = target: Ubiquitin carboxyl-terminal hydrolase BAP1 (Homo sapiens, UniProt Q92560); assay: BAP1 deubiquitinase inhibitors, dose response, biochemical (AID 714); format: functional
# Ubiquitin carboxyl-terminal hydrolase BAP1, sequence (Q92560 whole entry): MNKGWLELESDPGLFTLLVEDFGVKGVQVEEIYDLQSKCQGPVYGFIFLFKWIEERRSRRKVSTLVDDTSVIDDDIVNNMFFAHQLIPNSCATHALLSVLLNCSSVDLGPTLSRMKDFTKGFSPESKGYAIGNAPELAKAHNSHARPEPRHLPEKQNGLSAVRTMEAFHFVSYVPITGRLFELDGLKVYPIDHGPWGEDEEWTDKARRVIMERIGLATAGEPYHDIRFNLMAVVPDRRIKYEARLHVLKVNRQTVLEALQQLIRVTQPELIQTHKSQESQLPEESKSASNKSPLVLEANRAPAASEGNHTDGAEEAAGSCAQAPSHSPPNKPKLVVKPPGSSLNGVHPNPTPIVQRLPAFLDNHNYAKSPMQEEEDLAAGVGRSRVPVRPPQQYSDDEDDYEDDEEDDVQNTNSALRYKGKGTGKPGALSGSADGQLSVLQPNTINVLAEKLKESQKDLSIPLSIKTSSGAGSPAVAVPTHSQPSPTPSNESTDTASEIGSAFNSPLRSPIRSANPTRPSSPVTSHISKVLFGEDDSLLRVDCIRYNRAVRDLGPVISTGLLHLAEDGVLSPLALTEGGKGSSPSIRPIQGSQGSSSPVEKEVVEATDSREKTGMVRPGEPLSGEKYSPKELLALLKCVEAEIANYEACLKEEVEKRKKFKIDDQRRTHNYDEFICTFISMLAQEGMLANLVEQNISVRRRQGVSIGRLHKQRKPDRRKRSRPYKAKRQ
smiles,measurement,setting,value
CC(C)CCNC(=O)c1c(N)n(Cc2ccc3c(c2)OCO3)c2nc3ccccc3nc12,EC50,[1],1.69 µM (active)
CC(C)CNc1ccnc(NCc2csc(-c3ccccc3)n2)n1,AC50,[2],5.54 µM (active)
same,AC50,[3],4.74 µM (active)
Cc1ccc(-n2c(C)nc3oc4ccccc4c(=O)c3c2=O)cc1,IC50,Ephrin type-A receptor 4,> 100 µM (not active)
same,IC50,[4],1.13 µM (active)
same,IC50,[5],14.4 µM (active)
same,IC50,[6],0.779 µM (active)
same,IC50,[7],14 µM (active)
O=C(NCCN1CCC2(CC1)C(=O)NCN2C(=O)C1CCC1)c1ccc2ccccc2c1,IC50,Phospholipase D2,0.32 µM (active)
same,IC50,Phospholipase D1,4 µM (active)
CCCCCC(=O)N1C[C@@H](n2cc(C3CC3)nn2)[C@H](O)C[C@@H]1c1ccc(C)cc1,CC50,[8],> 40 µM (active)
N=c1ccn(CC(=O)NC(N)=O)c2ccccc12,EC50,Transthyretin,> 167 µM (inactive)
COC(=O)C1=C(C)NC(=O)/C1=C\c1cc(C)n(-c2cccc(C)c2)c1C,CC50,[9],16 µM (active)
same,IC50,[10],> 100 µM (active)
same,CC50,[11],> 40 µM (active)
C#CCn1cc(/C=N/NC(=O)c2cc3ccccc3o2)c2ccccc21,EC50,[12],0.544 µM (active)
same,IC50,Fibrinogen beta chain [13],> 83.3 µM (inactive)
same,IC50,Fibrinogen beta chain [14],> 83.3 µM (inactive)
CC(C)CC1NC(=S)N(Cc2ccccc2)C1=O (stereo not given),AC50,Paired box protein Pax-8,6.46 µM (active)
same,AC50,[15],29.2 µM (active)
same,AC50,[16],33.9 µM (active)
same,AC50,[17],94 µM (active)
same,AC50,[18],43 µM (active)
same,AC50,[19],15.9 µM (active)
same,AC50,[20],18.8 µM (active)
same,AC50,[21],21.4 µM (active)
same,AC50,[22],46.8 µM (active)
COc1cccc(CNCCc2c[nH]c3ccccc23)c1OCc1ccccc1,AC50,[23],14.4 µM (active)
same,AC50,A-375,36.2 µM (active)
same,AC50,[24],4.09 µM (active)
same,AC50,[25],11.8 µM (active)
same,AC50,[26],9.39 µM (active)
same,CC50,[27],> 40 µM (active)
Cc1noc(C)c1NC(=O)Nc1ccc2c(c1)C(=O)N([C@@H](C)CN(C)C)C[C@@H](C)[C@H](CN(C)S(=O)(=O)c1ccc(F)cc1)OCCCC[C@H](C)O2,AC50,[28],0.0289 µM (active)
O=c1[nH]c(SCc2ccc(F)cc2)nc2c1cnn2-c1ccc(F)cc1,IC50,[29],> 50 µM (not active)
